Results as given in patent publication US20100305136A1, “QUINOLONE ANALOGS DERIVATIZED WITH SULFONIC ACID, SULFONATE OR SULFONAMIDE” (priority 2006, published 2010).

B1: 8762NT: human rDNA-derived DNA oligonucleotide CGGAGGGCGCGCGGGTCGGGGCGGCGGCGGCGGCGGCGGTGGCGGCGGCGGCGGGGGCGGCGGG (nucleic acid)
DNA: CGGAGGGCGCGCGGGTCGGGGCGGCGGCGGCGGCGGCGGTGGCGGCGGCGGCGGGGGCGGCGGG
modifications: chemistry not given here

molecular target: T1, recombinant nucleolin (Homo sapiens, UniProt P19338); experiment: Nucleolin/nucleic acid ligand interaction, gel retardation assay; assay type: binding; parameters: key: A “+” represents the weakest nucleolin affinity; a “++++” represents the strongest nucleolin affinity; details: relative affinity of each nucleic acid ligand for nucleolin; nucleolin ~250 nM, 32P-labeled ligand 10 or 250 nM, 30 minutes at room temperature
T1 construct: without the N-terminal acidic stretches domain
T1 sequence (P19338 284-710 limits assumed): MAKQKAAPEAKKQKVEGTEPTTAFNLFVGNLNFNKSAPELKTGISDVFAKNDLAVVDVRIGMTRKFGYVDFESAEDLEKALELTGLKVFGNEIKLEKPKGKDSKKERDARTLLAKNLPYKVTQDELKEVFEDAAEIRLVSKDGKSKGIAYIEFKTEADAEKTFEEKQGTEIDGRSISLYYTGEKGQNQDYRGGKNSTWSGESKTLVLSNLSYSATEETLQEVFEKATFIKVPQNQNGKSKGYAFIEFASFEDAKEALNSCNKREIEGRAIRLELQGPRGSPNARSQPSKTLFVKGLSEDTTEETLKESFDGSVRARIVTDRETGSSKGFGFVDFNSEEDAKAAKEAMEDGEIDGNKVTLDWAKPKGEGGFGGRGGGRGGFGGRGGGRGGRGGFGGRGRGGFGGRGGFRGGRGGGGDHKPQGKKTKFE
Procedure: The following assays can be used to assess the effects of compounds on interactions between nucleolin and nucleic acid ligands capable of forming quadruplex (QP) and hairpin (HP) secondary structures. Nucleic acid ligands tested were a cMyc QP DNA having nucleotide sequence 5′-[…]-3′ and a HP pre-rRNA region to which nucleolin binds, having the sequence 5′-[…]-3′. In the assays, recombinant nucleolin (˜250 nM), which has been fused to maltose binding protein, and has the sequence under accession number NM_005381 without the N-terminal acidic stretches domain, is incubated with each of the two ^32P-labeled nucleic acid ligands (10 or 250 nM). Nucleolin and the nucleic acid ligand are incubated in the presence or absence of a test compound 7 in an incubation buffer (12.5 mM Tris, pH 7.6, 60 mM KCl, 1 mM MgCl2, 0.1 mM EDTA, 1 mM DTT, 5% glycerol, 0.1 mg/ml BSA) for 30 minutes at room temperature.
The resulting complexes are separated on a 6% DNA retardation gel using 0.5× TBE with 20 mM KCl as a running buffer. The assay also can be conducted using nucleic acid ligands derived from human ribosomal DNA, whereby one can identify a compound that selectively modulates formation of a nucleolin/nucleic acid complex that depends on the conformation of the nucleic acid. Sequences of suitable nucleic acids are shown in the preceding example. […] A “+” represents the weakest nucleolin affinity and a “++++” represents the strongest nucleolin affinity. […] Using nucleic acids such as these having known conformational properties, one can identify a compound such as the compounds described herein that selectively interferes with binding of nucleolin to a particular quadruplex structure.

Molecule | Affinity for Nucleolin
6183NT: human rDNA-derived DNA oligonucleotide GGGTCGGGGGCGGTGGTGGGCCCGCGGGGG (chemistry not given here) [Compound 6183NT] | +
7733T: human rDNA-derived DNA oligonucleotide GGGAGGGGCACGGGCCGGGGGCGGGACGGG (chemistry not given here) [Compound 7733T] | +
8511NT: human rDNA-derived DNA oligonucleotide GGGGGTGGGCGGGCGGGGCCGGGGGTGGG (chemistry not given here) [Compound 8511NT] | ++++
8749NT: human rDNA-derived DNA oligonucleotide GGGAGGGCGCGCGGGTCGGGG (chemistry not given here) [Compound 8749NT] | +
11028NT: human rDNA-derived DNA oligonucleotide GGGGCGCGGCGGGGGGAGAAGGGTCGGGGCGGCAGGGG (chemistry not given here) [Compound 11028NT] | +
B1 | ++++
